Measured values published in BindingDB's records for doi:10.1016/S0960-894X(97)00207-2 (1997).

Biological target: Beta-2 adrenergic receptor (Cavia porcellus) (UniProt Q8K4Z4)
Assay: Tested for beta-2-adrenergic blocking effect by measuring the ability to inhibit the relaxing effect of epinephrine on the isolated tracheal muscle of guinea pigs

Chain of Beta-2 adrenergic receptor (Cavia porcellus) (Q8K4Z4 whole entry, looked up): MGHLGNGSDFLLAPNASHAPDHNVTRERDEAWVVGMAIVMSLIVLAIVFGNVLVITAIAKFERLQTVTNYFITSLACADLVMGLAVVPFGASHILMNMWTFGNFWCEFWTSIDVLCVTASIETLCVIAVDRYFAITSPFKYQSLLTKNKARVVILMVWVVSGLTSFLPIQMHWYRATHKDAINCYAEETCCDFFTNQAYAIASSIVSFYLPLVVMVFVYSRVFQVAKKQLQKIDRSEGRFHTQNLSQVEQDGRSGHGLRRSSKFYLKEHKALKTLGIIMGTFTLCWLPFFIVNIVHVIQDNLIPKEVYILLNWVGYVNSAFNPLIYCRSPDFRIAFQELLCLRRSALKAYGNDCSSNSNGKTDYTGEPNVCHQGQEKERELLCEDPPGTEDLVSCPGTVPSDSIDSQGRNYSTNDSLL

- IC50: 2150 nM
Compound: COCCc1ccc(OC(F)(F)[C@@H](O)CNC(C)C)cc1 [(S)-1,1-Difluoro-3-isopropylamino-1-[4-(2-methoxy-ethyl)-phenoxy]-propan-2-ol]
